The results in this text go back to patent publication US7138425B2, “Phthalimide carboxylic acid derivatives” (Oxford Glycoscience (UK) Ltd., priority 2002, dated 2006).

In experiment [1] the test system is human endothelial cells. Briefly: Angiogenesis assay (AngioKit, tubule formation, PECAM-1 staining). The settings on record: Endothelial cell, 264 h, AngioKit co-culture, tubule formation on day 11, PECAM-1 staining relative to untreated control, read-out: Inhibition of angiogenesis (IC50). It counts as cell-based. The source says: A commercial angiogenesis assay for analysing the angiogenic or anti-angiogenic properties of test compounds (AngioKit catalogue no. ZHA-1000, TCS CellWorks Ltd, Buckingham, U.K) was used. In this assay, human endothelial cells were co-cultured with other human cells in a specifically designed medium. The endothelial cells initially form small islands within the culture matrix. They subsequently proliferate and then enter a migratory phase during which they move through the matrix to form threadlike tubule structures. These gradually join up (by 12–14 days) to form networks of […] tubules which closely resemble a capillary bed structure. These tubules stain positive for von Willebrand's Factor, Platelet Endothelial Cell Adhesion Molecule-1 (PECAM-1 or CD31) and Intercellular Adhesion Molecule-2 (ICAM-2).
The assay is supplied as growing cultures at the earliest stage of tubule formation in a 24 well plate format It is designed so that test compounds and conditioned media can be added to the cultures within individual wells. The resulting effect on tubule formation can then be monitored. Positive and negative test agents are provided in the kit, e.g. Vascular Endothelial Growth Factor (VEGF) and sumarin. All reagents were included as part of the kit and the assay was performed according to the protocol supplied by TCS CellWorks Ltd. Briefly, on day 1, fresh growth medium, medium plus control agent or medium plus test compound was added to the cells and the cultures were incubated at 37° C., 5% CO2. […] The specified medium was changed at days 4, 7 and 9 and the cells were monitored for growth. On day 11, the cells were washed with Dulbecco's Phosphate-Buffered Saline (PBS) and fixed using 70% ethanol (−20° C.) for 30 min at room temperature. After fixing, the cells were washed and treated with blocking buffer, 1% BSA in PBS. The cells were stained for PECAM-1 on the same day, following standard immunohistochemistry procedures well known to those skilled in the art, using mouse anti-human CD31 as the primary antibody and a goat anti-mouse IgG alkaline phosphate conjugate. Tubule formation was quantitatively assessed by measuring PECAM-1 positive staining using the image analysis program “Matrox inspector” to evaluate the percentage tubule staining relative to an untreated control.

Experiment [2] concerns the target T1, human heparanase (Homo sapiens, UniProt Q9Y251).
T1 construct: made in house; host or cells: insect cells
T1 sequence (Q9Y251 158-543 limits assumed): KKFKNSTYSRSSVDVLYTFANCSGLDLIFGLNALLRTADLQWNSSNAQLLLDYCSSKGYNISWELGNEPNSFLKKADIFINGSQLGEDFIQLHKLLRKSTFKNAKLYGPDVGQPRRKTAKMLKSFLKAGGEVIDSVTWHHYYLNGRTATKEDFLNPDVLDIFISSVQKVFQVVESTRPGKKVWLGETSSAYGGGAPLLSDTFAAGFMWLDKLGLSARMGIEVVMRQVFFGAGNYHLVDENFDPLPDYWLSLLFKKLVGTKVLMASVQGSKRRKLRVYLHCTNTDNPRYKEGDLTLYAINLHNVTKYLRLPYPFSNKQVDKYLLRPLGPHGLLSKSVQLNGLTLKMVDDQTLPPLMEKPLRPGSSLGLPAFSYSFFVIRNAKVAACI
T1 sequence (Q9Y251 36-109 limits assumed): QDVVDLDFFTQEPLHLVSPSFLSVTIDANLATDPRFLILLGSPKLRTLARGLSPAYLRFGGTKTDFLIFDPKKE
As to the kind of experiment: Heparanase assay (bFGF binding to heparan sulfate, plate ELISA). It counts as biochemical. The settings on record: human heparanase expressed in insect cells, pH 5.5, 2 h at 37° C.; read-out: Inhibition of Heparanase (IC50). The protocol: The assay is based upon the specific binding of basic fibroblast growth factor (bFGF) to heparan sulfate. […] Heparan sulfate will ordinarly adhere to plastic well plate surfaces. Following cleavage of high molecular weight heparan sulfate by heparanase, the smaller material generated will no longer adhere to the surface of a well plate. Thus, upon addition to the plate of bFGF, heparanase activity can be followed as a reduction in bFGF binding.
Nunc Maxisorp 96-well plates are coated for 16 h at room temperature with 100 μl/well 0.04 mg/ml heparan sulfate in PBS. The wells are then aspirated and blocked for 1 h with 200 μl/well 1% BSA-PBS. Following five washes with 0.01% BSA, 0.05% Tween20 PBS (wash buffer), 100 μl of recombinant human basic FGF (90 ng/ml in 0.1% BSA/PBS) is added per well and the plate is incubated at room temperature for 1 h.
The human heparanase used is expressed in insect cells. The wells are washed again with wash buffer and 100 μl of bFGF antibody-horse radish peroxidase conjugate is added. The plate is then incubated at room temperature for 1 h and subsequently washed five times with wash buffer. 100 μl of TMB peroxidase substrate is added and the colour allowed to develop for 10 min. The reaction is stopped with 50 μl 1M H2SO4 and the colour intensity is read at 450 nm on a plate reader.

Regarding `COc1ccc(N2C(=O)c3ccc(C(=O)O)cc3C2=O)cc1-c1nc2cc(-c3cc(F)cc(F)c3)ccc2o1` [Example 104, 2-[4-Methoxy-5-[5-(3,5-difluorophenyl)benzoxazol-2-yl]phenyl]-1,3-dioxo-2,3-dihydro-1H-isoindole-5-carboxylic acid], in experiment [1], the IC50 was 0.75 µM.
On the same count and under the same terms, as for `COc1ccc(N2C(=O)c3ccc(C(=O)O)cc3C2=O)cc1-c1nc2cc(-c3ccc4c(c3)OCO4)ccc2o1` [Example 105, 2-[4-Methoxy-5-[5-(3,4-methylenedioxyphenyl)benzoxazol-2-yl]phenyl]-1,3-dioxo-2,3-dihydro-1H-isoindole-5-carboxylic acid], the figure is 3 µM; as for `CCCNc1ccc(N2C(=O)c3ccc(C(=O)O)cc3C2=O)cc1-c1nc2cc(-c3ccc(F)cc3)ccc2o1` [Example 115, 2-[4-Propylamino-5-[5-(4-fluorophenyl)benzoxazol-2-yl]phenyl]-1,3-dioxo-2,3-dihydro-1H-isoindole-5-carboxylic acid], 0.25 µM.
As to `COc1ccc(-c2nc3cc(-c4cc5ccccc5o4)ccc3o2)cc1N1C(=O)c2ccc(C(=O)O)cc2C1=O` [Example 15, 2-[2-Methoxy-5-[5-(benzofuran-2-yl)benzoxazol-2-yl]phenyl]-1,3-dioxo-2,3-dihydro-1H-isoindole-5-carboxylic acid], the figures for the IC50 in experiment [2] and in experiment [1] were 0.5 µM and 1 µM, respectively.
Taken in the same sequence, the figures for `O=C(O)c1ccc2c(c1)C(=O)N(c1cccc(-c3nc4cc5ccccc5cc4o3)c1)C2=O` [Example 2, 2-[3-(Naphth[2,3-d]oxazol-2-yl)phenyl]-2,3-dihydro-1,3-dioxo-1H-isoindole-5-carboxylic acid] were 0.7 µM and 5 µM.
In the case of `CCCNc1ccc(N2C(=O)c3ccc(C(=O)O)cc3C2=O)cc1-c1nc2cc(-c3ccc(OC(F)(F)F)cc3)ccc2o1` [Example 116, 2-[4-Propylamino-5-[5-(4-trifluoromethoxy)phenylbenzoxazol-2-yl]phenyl]-1,3-dioxo-2,3-dihydro-1H-isoindole-5-carboxylic acid], in experiment [1], the IC50 turned out to be 0.1 µM.
Consider `COc1ccc(-c2nc3cc(-c4ccccc4)ccc3o2)cc1N1C(=O)c2ccc(C(=O)O)cc2C1=O` [Example 9, 2-[2-Methoxy-5-(5-phenylbenzoxazol-2-yl)phenyl]-1,3-dioxo-2,3-dihydro-1H-isoindole-5-carboxylic acid], for which the half-maximal inhibitory concentration (IC50) in experiment [1] is 1 µM.
Still for that read-out and setting: as for `COc1ccc(-c2ccc3oc(-c4ccc(OC)c(N5C(=O)c6ccc(C(=O)O)cc6C5=O)c4)nc3c2)cc1` [Example 27, 2-[2-Methoxy-5-[5-(4-methoxy)phenylbenzoxazol-2-yl]phenyl]-1,3-dioxo-2,3-dihydro-1H-isoindole-5-carboxylic acid], the figure is 15 µM; as for `CCCNc1ccc(N2C(=O)c3ccc(C(=O)O)cc3C2=O)cc1-c1nc2cc(-c3ccc(Cl)cc3)ccc2o1` [Example 112, 2-[4-Propylamino-5-[5-(4-chlorophenyl)benzoxazol-2-yl]phenyl]-1,3-dioxo-2,3-dihydro-1H-isoindole-5-carboxylic acid], 2 µM.
Take `CCCNc1ccc(N2C(=O)c3ccc(C(=O)O)cc3C2=O)cc1-c1nc2ccc(C)cc2o1` [Example 65, 2-[3-(6-Methylbenzoxazol-2-yl)-4-propylaminophenyl]-1,3-dioxo-2,3-dihydro-1H-isoindole-5-carboxylic acid]: the IC50 worked out at 0.8 µM in experiment [2] and 5 µM in experiment [1].
As for `CCCNc1ccc(N2C(=O)c3ccc(C(=O)O)cc3C2=O)cc1-c1nc2cc(Br)cc(F)c2o1` [Example 71, 2-[3-(5-Bromo-7-fluorobenzoxazol-2-yl)-4-propylaminophenyl]-1,3-dioxo-2,3-dihydro-1H-isoindole-5-carboxylic acid], the IC50 in experiment [2] and in experiment [1] was 0.5 µM in each case.
`O=C(O)c1ccc2c(c1)C(=O)N(c1cccc(-c3nc4ccccc4o3)c1)C2=O` [Example 1, 2-[3-(Benzoxazol-2-yl)phenyl]-2,3-dihydro-1,3-dioxo-1H-isoindole-5-carboxylic acid]: the IC50 in experiment [1] is 40 µM.
For the compound `CCCNc1ccc(N2C(=O)c3ccc(C(=O)O)cc3C2=O)cc1-c1nc2cc(-c3cc4ccccc4o3)ccc2o1` [Example 108, 2-[4-Propylamino-3-[5-(2-benzofuranyl)benzoxazol-2-yl]phenyl]-1,3-dioxo-2,3-dihydro-1H-isoindole-5-carboxylic acid], the IC50 in experiment [2] was found to be 0.5 µM; in experiment [1], 2 µM.
On to `COc1ccc(-c2nc3cc(-c4ccc(N(C)C)cc4)ccc3o2)cc1N1C(=O)c2ccc(C(=O)O)cc2C1=O` [Example 97, 2-[2-Methoxy-5-[5-(4-N,N-dimethylaminophenyl)benzoxazol-2-yl]phenyl]-1,3-dioxo-2,3-dihydro-1H-isoindole-5-carboxylic acid], for which the values for the IC50 in experiment [2] and in experiment [1] were 0.8 µM and 2 µM, respectively.
Taken in the same sequence, the figures for `COc1ccc(-c2nc3cc(-c4cc5ccccc5s4)ccc3o2)cc1N1C(=O)c2ccc(C(=O)O)cc2C1=O` [Example 92, 2-[2-Methoxy-5-[5-(2-benzothiophenyl)benzoxazol-2-yl]phenyl]-1,3-dioxo-2,3-dihydro-1H-isoindole-5-carboxylic acid] were 0.4 µM and 0.2 µM.
Taken in the same sequence, the figures for `CCCNc1ccc(N2C(=O)c3ccc(C(=O)O)cc3C2=O)cc1-c1nc2ccc(F)cc2o1` [Example 66, 2-[3-(6-Fluorobenzoxazol-2-yl)-4-propylaminophenyl]-1,3-dioxo-2,3-dihydro-1H-isoindole-5-carboxylic acid] were 0.8 µM and 2 µM.
Taken in the same sequence, the figures for `CCCNc1ccc(N2C(=O)c3ccc(C(=O)O)cc3C2=O)cc1-c1nc2cc(-c3cc4ccccc4s3)ccc2o1` [Example 110, 2-[4-Propylamino-5-[5-(2-benzothiophenyl)benzoxazol-2-yl]phenyl]-1,3-dioxo-2,3-dihydro-1H-isoindole-5-carboxylic acid] were 0.6 µM and 5 µM.
